Reference: patent publication US20250122182A1 (Isosterix, Inc., priority 2023, published 2025)

Target: Recombinant KAT6A/MOZ (488-778) protein (Homo sapiens (Human), UniProt Q92794)
Assay: KAT6A AlphaLISA Inhibition Screening Assay
Assay type: biochemical
Settings: for inhibition at 1 µM: read-out: Average Kat6A % inhibition @ 1 μM; for inhibition at 1 µM / Average Kat6A % inhibition @ 1 μM: 1 μM test compound; for inhibition at 10 µM: read-out: Average Kat6A % inhibition @ 10 μM; for inhibition at 10 µM / Average Kat6A % inhibition @ 10 μM: 10 μM test compound
Experimental: The Kat6a inhibitory activity of test compounds was determined using an Alpha Screen-based detection method. The assay reactions were conducted in a volume of 10 μL in Alpha Plate, White 384 well plate (cat #6008280, Perkin Elmer). The enzymatic reactions were performed in assay buffer pH 8.0 (50 mM Tris-HCl, 0.1 mM EDTA, 0.01% Tween-20, 1 mM Dithiothreitol, 0.1% BSA (fatty acid free) and 330 nM TSA (Trichostatin A)). 10 μL reaction volume consisting of 25 nM of Recombinant KAT6A/MOZ (488-778) protein (Active motif, Catalog #81223), 400 nM Acetyl coenzyme A (Catalog #A2056, Sigma), 200 nM of Histone H3 peptide [(amino acids 1-21), biotin-labeled (BPS Biosciences, Catalog #52011)]. Test compounds were screened at different doses starting with 10 μM, 3 fold dilution and 10 point Dose response curve. Enzyme and compounds solution were pre-incubated in assay plate for 60 or 10 min at room temperature then substrate and Acetyl coenzyme A solution were added to the plate. After addition, the plate was sealed with adhesive seals and incubated for 120 minutes at room temperature.
After 120 minutes of incubation, […] of AlphaLISA anti-acetyl-Lysine acceptor beads (Perkin Elmer, Catalog #AL143C) were added to the plate and it was incubated for 60 minutes at room temperature. Then […] of Alpha Streptavidin donor beads (Perkin Elmer, Catalog #6760002S) were added to the plate which was further incubated for 60 minutes at room temperature. After incubation, the alpha signal was recorded by using Perkin Elmer Envision multi-mode reader. Percent inhibition of enzyme activity by test compounds were determined relative to vehicle control.

Sequence of Recombinant KAT6A/MOZ (488-778) protein (Q92794 488-778): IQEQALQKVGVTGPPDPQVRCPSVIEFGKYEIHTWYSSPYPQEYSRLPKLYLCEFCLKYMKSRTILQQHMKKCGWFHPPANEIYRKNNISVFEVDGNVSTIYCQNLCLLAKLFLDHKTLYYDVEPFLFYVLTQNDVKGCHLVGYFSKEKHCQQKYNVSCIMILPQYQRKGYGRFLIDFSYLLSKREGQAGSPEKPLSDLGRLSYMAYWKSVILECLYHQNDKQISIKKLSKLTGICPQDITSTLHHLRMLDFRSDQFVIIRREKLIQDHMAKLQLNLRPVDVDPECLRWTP

SMILES | inhibition at 1 µM [%] | inhibition at 10 µM [%] | Average Kat6A % inhibition @ 1 μM [%] | Average Kat6A % inhibition @ 10 μM [%]
COc1cc2c(cc1S(=O)(=O)Nc1noc3cc(Cn4cc(CNS(C)(=O)=O)cn4)cc(OC)c13)CCC2 [Syn. Ex. 24, 6-methoxy-N-(4-methoxy-6-((4-(methylsulfonamidomethyl)-1H-pyrazol-1-yl)methyl)benzo[d]isoxazol-3-yl)-2,3-dihydro-1H-indene-5-sulfonamide] | 99 | 100 | – | –
C#CC(=O)N1Cc2cnn(Cc3cc(OC)c4c(NS(=O)(=O)c5ccc(C#N)cc5OC)noc4c3)c2C1 [Syn. Ex. 26, 4-cyano-2-methoxy-N-(4-methoxy-6-((5-propioloyl-5,6-dihydropyrrolo[3,4-c]pyrazol-1(4H)-yl)methyl)benzo[d]isoxazol-3-yl) benzenesulfonamide] | – | – | 99 | 100
CC#CC(=O)NCc1cnn(Cc2cc(OC)c3c(NS(=O)(=O)c4cc(C)c(C)cc4OC)noc3c2)c1 [Syn. Ex. 27, N-((1-((4-methoxy-3-((2-methoxy-4,5-dimethylphenyl)sulfonamido)benzo[d]isoxazol-6-yl)methyl)-1H-pyrazol-4-yl)methyl)but-2-ynamide] | 100 | 100 | – | –
C=C(F)C(=O)NCc1cnn(Cc2cc(OC)c3c(NS(=O)(=O)c4cc(C)c(C)cc4OC)noc3c2)c1 [Syn. Ex. 28, 2-fluoro-N-((1-((4-methoxy-3-((2-methoxy-4,5-dimethylphenyl)sulfonamido)benzo[d]isoxazol-6-yl)methyl)-1H-pyrazol-4-yl)methyl)acrylamide] | 100 | 100 | – | –
CC#CC(=O)NCc1cnn(Cc2cc(OC)c3c(NS(=O)(=O)c4cc5c(cc4OC)CCC5)noc3c2)c1 [Syn. Ex. 29, N-((1-((4-methoxy-3-((6-methoxy-2,3-dihydro-1H-indene)-5-sulfonamido)benzo[d]isoxazol-6-yl)methyl)-1H-pyrazol-4-yl)methyl) but-2-ynamide] | – | – | 100 | 100
C=C(F)C(=O)NCc1cnn(Cc2cc(OC)c3c(NS(=O)(=O)c4cc5c(cc4OC)CCC5)noc3c2)c1 [Syn. Ex. 30, 2-fluoro-N-((1-((4-methoxy-3-((6-methoxy-2,3-dihydro-1H-indene)-5-sulfonamido)benzo[d]isoxazol-6-yl)methyl)-1H-pyrazol-4-yl)methyl)acrylamide] | – | – | 100 | 100
CCc1ccc(OC)c(S(=O)(=O)Nc2noc3cc(Cn4cc(CNC(=O)OCCNC(=O)OC(C)(C)C)cn4)cc(OC)c23)c1 [Syn. Ex. 31, 2-((tert-butoxycarbonyl)amino)ethyl ((1-((3-((5-ethyl-2-methoxyphenyl)sulfonamido)-4-methoxybenzo[d]isoxazol-6-yl)methyl)-1H-pyrazol-4-yl)methyl)carbamate] | 86 | 99 | – | –
CCc1ccc(OC)c(S(=O)(=O)Nc2noc3cc(Cn4cc(CNC(=O)OCCN)cn4)cc(OC)c23)c1 [Syn. Ex. 32, 2-aminoethyl ((1-((3-((5-ethyl-2-methoxyphenyl)sulfonamido)-4-methoxybenzo[d]isoxazol-6-yl)methyl)-1H-pyrazol-4-yl)methyl) carbamate] | – | – | 75 | 97
COc1ccc(C(C)(C)C)cc1S(=O)(=O)Nc1noc2cc(Cn3cc(CNS(C)(=O)=O)cn3)cc(OC)c12 [Syn. Ex. 33, 5-(tert-butyl)-2-methoxy-N-(4-methoxy-6-((4-(methylsulfonamidomethyl)-1H-pyrazol-1-yl)methyl)benzo[d]isoxazol-3-yl)benzenesulfonamide] | 96 | 100 | – | –
CCc1ccc(OC)c(S(=O)(=O)Nc2noc3cc(Cn4cc(CNC(=O)OCCO)cn4)cc(OC)c23)c1 [Syn. Ex. 34, 2-hydroxyethyl ((1-((3-((5-ethyl-2-methoxyphenyl)sulfonamido)-4-methoxybenzo[d]isoxazol-6-yl)methyl)-1H-pyrazol-4-yl)methyl)carbamate] | 86 | 100 | – | –
C=C(Cl)C(=O)NCc1cnn(Cc2cc(OC)c3c(NS(=O)(=O)c4cc(CC)ccc4OC)noc3c2)c1 [Syn. Ex. 35, 2-chloro-N-((1-((3-((5-ethyl-2-methoxyphenyl)sulfonamido)-4-methoxybenzo[d]isoxazol-6-yl)methyl)-1H-pyrazol-4-yl)methyl)acrylamide] | 100 | 100 | – | –
C=C(F)C(=O)NCc1cnn(Cc2cc(OC)c3c(NS(=O)(=O)c4ccccc4OCc4ccccc4)noc3c2)c1 [Syn. Ex. 36, N-((1-((3-((2-(benzyloxy)phenyl)sulfonamido)-4-methoxybenzo[d]isoxazol-6-yl)methyl)-1H-pyrazol-4-yl)methyl)-2-fluoroacrylamide] | 93 | 97 | – | –
COc1cc(Cn2cc(CNS(C)(=O)=O)cn2)cc2onc(NS(=O)(=O)c3ccccc3OCc3ccccc3)c12 [Syn. Ex. 37, 2-(benzyloxy)-N-(4-methoxy-6-((4-(methylsulfonamidomethyl)-1H-pyrazol-1-yl)methyl)benzo[d]isoxazol-3-yl)benzenesulfonamide] | 100 | 100 | – | –
COc1ccc(C(C)C)cc1S(=O)(=O)Nc1noc2cc(Cn3cc(CNS(C)(=O)=O)cn3)cc(OC)c12 [Syn. Ex. 38, 5-isopropyl-2-methoxy-N-(4-methoxy-6-((4-(methylsulfonamidomethyl)-1H-pyrazol-1-yl)methyl)benzo[d]isoxazol-3-yl)benzenesulfonamide] | 100 | 99 | – | –
C=C(F)C(=O)N(C)Cc1cnn(Cc2cc(OC)c3c(NS(=O)(=O)c4cc(CC)ccc4OC)noc3c2)c1 [Syn. Ex. 39, N-((1-((3-((5-ethyl-2-methoxyphenyl)sulfonamido)-4-methoxybenzo[d]isoxazol-6-yl)methyl)-1H-pyrazol-4-yl)methyl)-2-fluoro-N-methylacrylamide] | 92 | 100 | – | –
C=C(F)C(=O)NCc1cnn(Cc2cc(OC)c3c(NS(=O)(=O)c4ccccc4OC)noc3c2)c1 [Syn. Ex. 40, 2-fluoro-N-((1-((4-methoxy-3-((2-methoxyphenyl)sulfonamido)benzo[d]isoxazol-6-yl)methyl)-1H-pyrazol-4-yl)methyl)acrylamide] | 99 | 99 | – | –
C=C(F)C(=O)NCc1cnn(Cc2cc(OC)c3c(NS(=O)(=O)c4cc(OC)ccc4OC)noc3c2)c1 [Syn. Ex. 41, N-((1-((3-((2,5-dimethoxyphenyl)sulfonamido)-4-methoxybenzo[d]isoxazol-6-yl)methyl)-1H-pyrazol-4-yl)methyl)-2-fluoroacrylamide] | 87 | 100 | – | –
C=CC(=O)NCc1cnn(Cc2cc(OC)c3c(NS(=O)(=O)c4cc(CC)ccc4OC)noc3c2)c1 [Syn. Ex. 42, N-((1-((3-((5-ethyl-2-methoxyphenyl)sulfonamido)-4-methoxybenzo[d]isoxazol-6-yl)methyl)-1H-pyrazol-4-yl)methyl) acrylamide] | 93 | 100 | – | –
C=C(F)C(=O)NCc1cnn(Cc2cc(OC)c3c(NS(=O)(=O)c4cc(CC)ccc4OCC#N)noc3c2)c1 [Syn. Ex. 43, N-((1-((3-((2-(cyanomethoxy)-5-ethylphenyl)sulfonamido)-4-methoxybenzo[d]isoxazol-6-yl)methyl)-1H-pyrazol-4-yl)methyl)-2-fluoroacrylamide] | 96 | 98 | – | –
CCc1ccc(OCC#N)c(S(=O)(=O)Nc2noc3cc(Cn4cc(CNC(=O)OC)cn4)cc(OC)c23)c1 [Syn. Ex. 44, methyl ((1-((3-((2-(cyanomethoxy)-5-ethylphenyl)sulfonamido)-4-methoxybenzo[d]isoxazol-6-yl)methyl)-1H-pyrazol-4-yl)methyl)carbamate] | 97 | 100 | – | –
C=C(F)C(=O)NCc1cnn(Cc2cc(OC)c3c(NS(=O)(=O)c4cc(CC)ccc4OCC(N)=O)noc3c2)c1 [Syn. Ex. 45, N-((1-((3-((2-(2-amino-2-oxoethoxy)-5-ethylphenyl)sulfonamido)-4-methoxybenzo[d]isoxazol-6-yl)methyl)-1H-pyrazol-4-yl)methyl)-2-fluoroacrylamide] | 85 | 99 | – | –
CCc1ccc(OC)c(S(=O)(=O)Nc2noc3cc(Cn4cc(CNC(=O)OCCNC(C)=O)cn4)cc(OC)c23)c1 [Syn. Ex. 48, 2-acetamidoethyl ((1-((3-((5-ethyl-2-methoxyphenyl)sulfonamido)-4-methoxybenzo[d]isoxazol-6-yl)methyl)-1H-pyrazol-4-yl)methyl)carbamate] | 96 | 100 | – | –
CCc1ccc(OC)c(S(=O)(=O)Nc2noc3cc(Cn4cc(CNC(=O)C#CCO)cn4)cc(OC)c23)c1 [Syn. Ex. 49, N-((1-((3-((5-ethyl-2-methoxyphenyl)sulfonamido)-4-methoxybenzo[d]isoxazol-6-yl)methyl)-1H-pyrazol-4-yl)methyl)-4-hydroxybut-2-ynamide] | 94 | 100 | – | –
